# Reference: US10293001B2, “Compositions and methods for restoring or rejuvenating stem/progenitor cell function” (University of Pittsburgh—Of the Commonwealth System of …, priority 2012, dated 2019)
# How the values were obtained:
# [1] = system: Ercc1^−/− MEFs; assay: Reversal of senescence (SA-β-gal) of Ercc1−/− MEFs; type: cell-based, mouse; conditions: within 24 hours of treatment
# [2] = system: aged WT MDSPCs; assay: Myogenic fusion of aged MDSPCs with IKKβ inhibition; type: cell-based, mouse; design: dose or concentration left out as unconfirmed; conditions: under fusion conditions
# Text: To determine further whether the NF-κB signaling pathway plays a role in driving age-related stem cell dysfunction, whether pharmacologic inhibition of IKK-β would restore the myogenic potential of aged WT MDSPCs was examined. […] MDSPCs were isolated from 30 month old p65^+/− and 24 month old WT mice and compared the myogenic potential of 30 month old p65^+/− MDSPCs in vitro to naturally aged WT MDSPCs. The results confirmed that MDSPCs from p65^+/− aged mice (30 month) were more myogenic than MDSPCs from 24 month old WT mice.
# [3] = system: Ercc1^−/Δ mice; assay: Chronic treatment with mitochondrial radical scavenger in progeroid mice; type: in vivo, mouse
smiles,measurement,setting,value
O=C(c1ccc(Nc2nccc(-c3cc4ccccc4s3)n2)cc1)N1CCC(N2CCCC2)CC1 [IKKiVII],reversing senescence of Ercc1−/− MEFs (>60% of cells SA-β gal+),[1],could be reversed
NC(=O)Nc1sc(-c2ccc(F)cc2)cc1C(N)=O [IKKβ inhibitor IV],fusion index of aged MDSPCs,[2],significantly increased
CC(C)C[C@@H](/C=C/[C@H](Cc1ccccc1)C(=O)N1CCC[C@H]1C(=O)N[C@H](C(=O)N[C@@H](CCCNC(=O)OCc1ccccc1)C(=O)NC1CC(C)(C)N([O])C(C)(C)C1)C(C)C)NC(=O)OC(C)(C)C [XJB-5-131],onset of aging-related degenerative changes,[3],delay the onset
